In patent US20250369032A1 (priority 2023, published 2025):
“And” between values parts separate entries of the source, which are not always exact repeats. Equal values may be shown once. Read-outs that look alike come from different tables or passages of the source.

Experiments:
[1] = target: alkaline phosphatase (Bos taurus, UniProt P19111); format: biochemical; design: purchased Sigma Aldrich, St. Louis, MO P0114 (original source); P7640 (second source, 'new AP' condition only)
[2] = test system: skin; details: cited from earlier work
[3] = test system: endogenous skin phosphatase; format: biochemical, porcine; details: optical density compared to the naïve condition
Procedure: Our next studies involved applying the test substance (500 μL) directly to the epidermis side of previously frozen porcine skin (Spear Products, Coopersburg, PA) that is placed in a holder that only exposes the epidermis side for 30 minutes, adding phosphate buffered saline (PBS) with added sodium azide (metabolic inhibitor that ensure no viable tissue), then aliquoting into cuvettes to read at an optical density of 300 nm. […] So, at the end of the initial studies described above, almost out of frustration, we tried to probe for released phosphatase activity using p-Nitrophenyl phosphate disodium salt (PNPP; Sigma Aldrich, St. Louis, MO) substrate solution to detect any presence of phosphatase.
• 1. Thaw 2 pieces of frozen porcine skin • a. Punch out as many skin discs and mount in holders • 2. Label cuvettes (3 for each chemical)
• 1. Add 500 μL of test chemical to holder; incubate at room temperate for 30 minutes • 2. After 30 minutes, add 2 mL of PBS-Azide to both the holder containing the test chemical; forcefully pipette and re-pipette 10 times • 3. From the holder, aliquot 400 μL into 3 cuvettes; forcefully pipette and re-pipette 3 times before dispensing into cuvettes
Skin corrosion by GHS Category 1 dermal corrosive chemicals results in the disintegration of the epidermis into the dermis.

[4] = test system: porcine skin; details: R 1 and 2
Procedure: Our initial studies involved using fresh and frozen porcine skin “buttons”. These buttons were punched out of porcine skin (Spear Products, Cooopersburg, PA) using a […] biopsy punch tool. Three different kinds of skin buttons were prepared from fresh porcine skin, frozen porcine skin, and frozen porcine skin with the fatty layer removed. […] The next day, the tubes were taken out and vortexed and 500 μL of the solution was aliquoted into cuvettes to read at three different optical density wavelengths (OD190, OD290, OD300) to evaluate the best response.
• 1. Thaw 2 pieces of frozen porcine skin • 2. Punch out buttons: 24 buttons in each tube filled with 40 mL PBS-Azide
• 1. Plate layout for dosing:
• 1. Dose each tissue with 140 μL of test chemical • 2.
• 1. Take out of incubator and vortex pulse 3× • 2. Aliquot 500 μL to cuvette and read results at OD190, OD290, and OD300
There were three readings done at an optical density of 190, 290, and 300 nm to evaluate the best response. […] To address the variable exposure conditions, our next studies involved placing a larger porcine skin section into a holder that exposes only the epidermis side with no potential for test chemical exposure from the backside or through the sides.

[5] = 1:100, 20 μL into 180 μL, 0.5 mL microcentrifuge tubes, 4 hours RT, PNPP 60 min, 405 nm
[6] = average of R1-R3, 1:100, 20 μL into 180 μL, 4 hours RT, PNPP 60 min, 405 nm
[7] = skin, chemical lists of the protocols
[8] = fresh porcine skin, 140 μL, 18 hours at 37° C. in PBS-Azide
[9] = frozen porcine skin with fat layer removed

Chain of alkaline phosphatase (P19111 20-506): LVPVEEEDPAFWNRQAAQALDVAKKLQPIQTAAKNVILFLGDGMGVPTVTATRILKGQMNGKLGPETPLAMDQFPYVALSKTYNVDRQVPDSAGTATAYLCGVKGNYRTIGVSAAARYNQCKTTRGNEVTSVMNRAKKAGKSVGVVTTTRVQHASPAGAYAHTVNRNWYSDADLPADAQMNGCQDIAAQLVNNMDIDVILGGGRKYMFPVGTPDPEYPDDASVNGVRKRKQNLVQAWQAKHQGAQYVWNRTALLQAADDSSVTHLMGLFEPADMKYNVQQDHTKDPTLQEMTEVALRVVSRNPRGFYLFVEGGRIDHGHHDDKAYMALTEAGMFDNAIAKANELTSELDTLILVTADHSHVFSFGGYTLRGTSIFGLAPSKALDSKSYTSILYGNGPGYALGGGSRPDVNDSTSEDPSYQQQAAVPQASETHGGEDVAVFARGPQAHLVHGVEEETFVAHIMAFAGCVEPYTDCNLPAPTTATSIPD

Compound	A1-Results R1 [1, 5]	A1-Results R3 [1, 5]	A1-Results AVG [1, 6]	A1-Results AVG [1]	A1-Results R1 [1]	A1-Results R3 [1]	in vivo GHS [2, 7]	percent of phosphatase measured (first reading) [3] [%]	percent of phosphatase measured (second reading) [3] [%]	percent of phosphatase measured, average [3] [%]	other results
CSc1ccc(C=O)cc1	3.354	3.238	3.344								
CC/C=C\CC1=C(C)CCC1=O				3.502	3.502	3.502					
CC(C)=CCC/C(C)=C/CO	3.406	3.502	3.470				Cat. 2 (Category 2 (irritation; mean score of ≥2.3 and ≤4.0 for erythema/eschar or for oedema in at least 2 of 3 tested animals at 24, 48, and 72 hours or inflammation that persists to the end of 14 days))				
CCCCCBr [1-Bromopentane]	3.428	3.056	3.261				Cat. 2 (Category 2 (irritation; mean score of ≥2.3 and ≤4.0 for erythema/eschar or for oedema in at least 2 of 3 tested animals at 24, 48, and 72 hours or inflammation that persists to the end of 14 days))				
CCCCCCCCCCO [1-Decanol]				3.449	3.502	3.380					
CC(C)(O)CCc1ccccc1 [2-Methyl-4-phenyl-2-butanol]								98.6	100.0	99.3	Corrosive ([2]; Table 2): No
BrCCc1ccccc1 [(2-Bromoethyl)benzene]								100.0	100.0	100.0	Corrosive ([2]; rabbit, in vivo): No
CC(=O)OCc1ccccc1 [Benzyl Acetate]	3.401	3.502	3.463								
O=C(OCc1ccccc1)c1ccccc1O [Benzyl Salicylate]	3.502	3.445	3.464								
CC(C=O)Cc1ccc(C(C)C)cc1 (stereo not shown) [Cyclamen aldehyde]	3.405	3.502	3.470				Cat. 2 (Category 2 (irritation; mean score of ≥2.3 and ≤4.0 for erythema/eschar or for oedema in at least 2 of 3 tested animals at 24, 48, and 72 hours or inflammation that persists to the end of 14 days))	100.0	100.0	100.0	OD190 [4, 8]: 0.694 and 0.716; OD290 [4, 8]: 0.290 and 0.477; OD300 [4, 8]: 0.274 and 0.447; OD190 [4, 9]: 0.222 and 0.214; OD290 [4, 9]: 0.195 and 0.153; OD300 [4, 9]: 0.142 and 0.119; OD290 ([4]; frozen porcine skin): 1.023 and 0.955; OD300 ([4]; frozen porcine skin): 0.901 and 0.852; Corrosive ([2]; Table 2): No; in vivo GHS ([2]; skin, Tables 1A-1C and 2): Cat. 2
CCCCCCC=O [Heptanal]				3.196	3.409	3.049		100.0	94.4	97.2	Corrosive ([2]; rabbit, in vivo): No; in vivo GHS ([2]; rabbit, in vivo): Cat. 2
CC(CC=O)CCCC(C)(C)O (stereo not shown) [Hydroxycitronellal]				3.356	3.412	3.154					
CC(C)O [Isopropanol]				3.423	3.484	3.305					
CCCCCCCCCCCCCC(=O)OC(C)C [Isopropyl Myristate]				3.451	3.373	3.484					
OCCc1ccccc1 [Phenylethyl alcohol]				3.469	3.502	3.403					
OCCOCCOCCO [Triethylene glycol]								29.5	28.2	28.9	Corrosive ([2]; rabbit, in vivo): No
CC1=CCC(C(C)(C)O)CC1 (stereo not drawn) [alpha-Terpineol]	3.502	3.502	3.502								
CCCSSCCC [di-n-Propyl disulfide]	3.467	3.395	3.445				Cat. 2 (Category 2 (irritation; mean score of ≥2.3 and ≤4.0 for erythema/eschar or for oedema in at least 2 of 3 tested animals at 24, 48, and 72 hours or inflammation that persists to the end of 14 days))	68.1	71.6	69.9	Corrosive ([2]; Table 2): No; in vivo GHS ([2]; skin, Tables 1A-1C and 2): Cat. 2
CCCCCCCN [n-Heptylamine]				2.557	2.141	2.862	Cat. 1B/1C				OD405 readings (FIG. 6D) [1]: 3.244 and 3.057 and 3.152; prediction based on OD405 values (FIG. 6B) [1]: incorrectly predicted
C=C(C)[C@@H]1CC=C(CO)CC1 [p-Metha-1,8-dien-7-ol]							Cat. 2 (Category 2 (irritation; mean score of ≥2.3 and ≤4.0 for erythema/eschar or for oedema in at least 2 of 3 tested animals at 24, 48, and 72 hours or inflammation that persists to the end of 14 days))				
